Assay results from the NIST ThermoML archive (doi:10.1021/je700300y).
± gives the expanded uncertainty stated by the source.

Assay: xn = mol fraction of the nth substance listed
Settings: 101 kPa, Liquid

CO [methanol] + O
mass density [kg/m3]
Settings	283.15 K	288.15 K	293.15 K	298.15 K	303.15 K	308.15 K	313.15 K
x2 = 0.0871	814.96 ± 0.21	810.44 ± 0.22	805.91 ± 0.22	801.35 ± 0.22	796.78 ± 0.23	792.17 ± 0.23	787.52 ± 0.23
x2 = 0.1529	826.26 ± 0.2	821.86 ± 0.21	817.44 ± 0.21	812.99 ± 0.21	808.5 ± 0.22	803.98 ± 0.22	799.41 ± 0.22
x2 = 0.2395	841.8 ± 0.19	837.53 ± 0.2	833.23 ± 0.2	828.9 ± 0.2	824.53 ± 0.21	820.11 ± 0.21	815.64 ± 0.21
x2 = 0.3306	859.01 ± 0.18	854.89 ± 0.18	850.73 ± 0.19	846.53 ± 0.19	842.28 ± 0.19	837.98 ± 0.2	833.61 ± 0.2
x2 = 0.4064	873.83 ± 0.17	869.85 ± 0.17	865.81 ± 0.17	861.73 ± 0.18	857.59 ± 0.18	853.4 ± 0.18	849.13 ± 0.19
x2 = 0.4788	888.32 ± 0.16	884.5 ± 0.16	880.62 ± 0.16	876.68 ± 0.17	872.67 ± 0.17	868.59 ± 0.17	864.45 ± 0.17
x2 = 0.5552	904.06 ± 0.14	900.44 ± 0.15	896.75 ± 0.15	893 ± 0.15	889.17 ± 0.16	885.26 ± 0.16	881.28 ± 0.16
x2 = 0.6365	921.03 ± 0.13	917.69 ± 0.13	914.28 ± 0.14	910.78 ± 0.14	907.2 ± 0.14	903.52 ± 0.14	899.76 ± 0.15
x2 = 0.7321	941.06 ± 0.12	938.2 ± 0.12	935.24 ± 0.12	932.18 ± 0.12	929.02 ± 0.13	925.74 ± 0.13	922.36 ± 0.13
x2 = 0.7901	952.73 ± 0.11	950.29 ± 0.11	947.7 ± 0.11	945 ± 0.11	942.19 ± 0.12	939.27 ± 0.12	936.09 ± 0.12
x2 = 0.8807	970.64 ± 0.09	969.11 ± 0.09	967.39 ± 0.1	965.47 ± 0.1	963.37 ± 0.1	961.09 ± 0.1	958.65 ± 0.1
x2 = 0.964	988.96 ± 0.08	988.25 ± 0.08	987.25 ± 0.08	986 ± 0.08	984.5 ± 0.08	982.79 ± 0.08	980.87 ± 0.09

CCO [ethanol] + O
mass density [kg/m3]
Settings	283.15 K	288.15 K	293.15 K	298.15 K	303.15 K	308.15 K	313.15 K
x2 = 0.0805	808.05 ± 0.22	803.79 ± 0.22	799.51 ± 0.22	795.19 ± 0.23	790.85 ± 0.23	786.45 ± 0.23	782.01 ± 0.24
x2 = 0.1584	818.14 ± 0.21	813.87 ± 0.21	809.57 ± 0.22	805.23 ± 0.22	800.84 ± 0.22	796.41 ± 0.23	791.93 ± 0.23
x2 = 0.2376	828.89 ± 0.2	824.61 ± 0.21	820.29 ± 0.21	815.93 ± 0.21	811.53 ± 0.22	807.07 ± 0.22	802.5 ± 0.22
x2 = 0.3322	842.93 ± 0.19	838.67 ± 0.19	834.37 ± 0.2	830.01 ± 0.2	825.61 ± 0.2	821.15 ± 0.21	816.63 ± 0.21
x2 = 0.4026	854.12 ± 0.18	849.89 ± 0.19	845.61 ± 0.19	841.27 ± 0.19	836.89 ± 0.2	832.45 ± 0.2	827.94 ± 0.2
x2 = 0.491	869.86 ± 0.17	865.67 ± 0.17	861.44 ± 0.18	857.16 ± 0.18	852.81 ± 0.18	848.4 ± 0.19	843.95 ± 0.19
x2 = 0.5806	888.19 ± 0.16	884.08 ± 0.16	879.93 ± 0.16	875.71 ± 0.17	871.44 ± 0.17	867.11 ± 0.17	862.72 ± 0.18
x2 = 0.648	903.57 ± 0.15	899.55 ± 0.15	895.48 ± 0.15	891.35 ± 0.15	887.16 ± 0.16	882.91 ± 0.16	878.59 ± 0.16
x2 = 0.7185	921.65 ± 0.13	917.78 ± 0.13	913.84 ± 0.14	909.85 ± 0.14	905.8 ± 0.14	901.68 ± 0.15	897.49 ± 0.15
x2 = 0.8009	944.6 ± 0.11	941.07 ± 0.12	937.48 ± 0.12	933.81 ± 0.12	930.07 ± 0.12	926.25 ± 0.13	922.34 ± 0.13
x2 = 0.8813	965.96 ± 0.1	963.49 ± 0.1	960.85 ± 0.1	958.06 ± 0.1	955.13 ± 0.11	952.05 ± 0.11	948.82 ± 0.11
x2 = 0.9605	984.04 ± 0.08	983.11 ± 0.08	981.89 ± 0.08	980.42 ± 0.09	978.75 ± 0.09	976.91 ± 0.09	974.89 ± 0.09
